# In patent US9023788B2, “Methods compounds and pharmaceutical compositions for treating anxiety and mood disorders” (New York University, priority 2010, dated 2015):
# Like-named read-outs stand apart in the source and are kept apart here. Marks after values point to notes of the source that are not given here.
# How the values were obtained:
# [1] = system: α2-adrenoceptors; conditions: cited from earlier work
# [2] = system: Swiss Webster male mice; assay: Tail suspension test; assay type: in vivo, mouse; conditions: for effect of coinfused antagonist on anti-immobility effect of 6FNE: 6FNE 3 nmoles + antagonist 1 nmole ivt.; for effect of antagonist alone on immobility (antagonist+vehicle versus vehicle-only): antagonist 1 nmole ivt.; for immobility versus vehicle: acute ivt. 6FNE or DEX, DMI subacute i.p. 10 mg/kg, 10 mg/kg
# Protocol: (§2) In experiment on chronic administration, a daily dose of 0.5 mg/kg in the same vehicle was administered for 11 d.
# (§3) Infusion procedure. All experiments were performed between 1000 and 1400 hr. […] A total of 350 n1 of solution was infused at 100 nl/min over a 3.5 min period with the cannula remaining in place for 30 seconds after infusion. The animal was then subjected to the behavioral tests described below making the interval between the start of infusion and start of behavioral test 4.5-5 min. […] All drugs were prepared freshly each day in saline.
# Tail suspension test: The procedure of Stem, et al., Psychopharmacology 1985; 85: 367-370 was used. Immediately following intraventricular infusion or 30 min after the third i.p. injection, the animals were taped by the tail 72 cm above a padded platform for 6 min during which time they were videorecorded. Disks were subsequently rated blind as above for times immobile during the last 4 min of the test.
# [3] = system: α2-adrenoceptors; conditions: atipamezole 0.5 mg/kg; cited from earlier work
# [4] = system: Swiss Webster male mice; assay: Repeated open space forced swim (RFS) test; conditions: for overall effect of antagonist pretreatment on distance swum / overall effect of antagonist pretreatment on immobility: prazosin 5 mg/kg or atipamezole 0.5 mg/kg i.p.
# Protocol: as §2, §3
# In this procedure, mice are swum for 15-20 min/d for 4 d in rat tub cages (24×43×23 cm, w×h×l) filled with 13 cm high luke-warm water (32-34° C.) and thereafter once or twice a week. […] In the present experiment, the animals were matched on immobility level of the 4th swim into vehicle and drug groups and infused ivt. just prior to the 5th swim. Groups given i.p. injections were dosed initially 5 min after the 4th swim and finally 30 min prior to the 5th swim. Discs were rated as above on immobility and distance swum (number of quadrants entered).
# [5] = system: mice; conditions: given chronically in the drinking water; cited from earlier work
# [6] = system: handling-stressed mice; assay: Home cage activity after handling and injection stress; assay type: in vivo, mouse; conditions: acute i.p. dp6FNE 1 mg/kg in the presence of phentolamine; cirazoline 0.1 mg/kg; FIG. 3
# Protocol: FIG. 3 depicts the effect of acute i.p. dp6FNE (1 mg/kg) or cirazoline (0.1 mg/kg), (both N=1), on home cage activity in terms of rearing and ambulation, Veh (N=12).
# It is known that peripheral administration of α1-agonists without phentolamine impairs exploratory behavior in the open field (Yang, et al., J Pharmacol exp Ther 1990; 255: 1064-1070).
# [7] = system: brain α-adrenoceptors; conditions: cited from earlier work
# [8] = system: mice; conditions: months of chronic treatment (Doze et al. 2009); cited from earlier work
# [9] = system: mice; conditions: months of chronic treatment (Doze et al. 2009); cited from earlier work; remark: listed apart in the source
# [10] = system: mice; assay: Elevated plus-maze test; assay type: in vivo, mouse; conditions: dp6FNE 0, 1, 3, 10 mg/kg i.p. plus phentolamine 1 mg/kg; Example 6, expected
# Protocol: (§1) To verify that dp6FNE has anxiolytic effects this agent is tested in both the light/dark box (Shimada, et al., Gen Pharmac 1995; 26: 205-210) and elevated plus-maze (Pellow, et al., J Neurosci Methods 1985; 14: 149-167). […] For the plus-maze, the animal is placed in the center section of the maze and videotaped to determine both number of entries and time spent in the open and closed arms of the maze.
# [11] = in vivo; cited from earlier work
# [12] = Chronic mild stress (CMS)-anhedonia model, sweetened milk consumption; assay type: in vivo; conditions: FIG. 5
# From the text: The latter property may actually be beneficial as it would counter the weight gain frequently reported with antidepressant treatment (Richelson, Mayo Clin Proc 2001; 76: 511-527).
# [13] = system: Swiss Webster male mice; assay: Observation for sedation and signs of toxicity; assay type: in vivo, mouse
# From the text: Sedation interferes with behavioral performance and is therefore a detrimental side effect to the treatment of major depressive illness in humans.
# Although dp6FNE was designed to be a temporary treatment, it was of interest to determine how long it would remain effective if given repeatedly.
# [14] = system: Swiss Webster male mice; assay: Open field motor activity and anxiety (i.p. dp6FNE/prazosin); assay type: in vivo, mouse; conditions: 1 h; dp6FNE 0.1-3 mg/kg/prazosin; amphetamine 2 mg/kg i.p.
# Protocol: For purposes of comparison, some animals received instead d-amphetamine, 2 mg/kg, i.p. Total quadrants entered and time in the center area of the field as a ratio to the total distance traveled were rated from videorecordings.
# [15] = system: mice; assay: Light/dark box test; assay type: in vivo, mouse; conditions: dp6FNE 0, 1, 3, 10 mg/kg i.p. plus phentolamine 1 mg/kg; Example 6, expected
# Protocol: as §1
# [16] = system: cortical α1-adrenoceptors; conditions: prazosin 5 mg/kg; cited from earlier work
# [17] = system: LC α1-adrenoceptors; assay: Novel cage test after LC microinjection; assay type: in vivo, rat; conditions: for Gross movements: 15 min novel cage
# [18] = system: α1-adrenoceptors; conditions: cited from earlier work
# [19] = system: Fos expression in LC, PVH, lateral septal nucleus and NAC; conditions: stimulation or blockade of LC α1-receptors (Stone et al. 2011); cited from earlier work
# [20] = Outside LC (n = 23), 3 nmoles/side
# [21] = Within LC (n = 25), 3 nmoles/side
# [22] = entire within LC group vs vehicle, 3 nmoles/side
smiles,measurement,setting,value
CCC1(c2cnc[nH]2)Cc2ccccc2C1 [atipamezole],affinity for respective receptor,[1],low nanomolar affinities
same,effect of coinfused antagonist on anti-immobility effect of 6FNE,[2],totally abolished the effect of 6FNE
same,effect of antagonist alone on immobility (antagonist+vehicle versus vehicle-only),[2],had no effect in this group
same,blockade of sedative and hypothermic effects of a low dose of dexmedetomidine,[3],approximately 70%
same,overall effect of antagonist pretreatment on distance swum,[4],no significant overall action
same,overall effect of antagonist pretreatment on immobility,[4],no significant overall effect
c1ccc(C2CC2)c(OCC2=NCCN2)c1 [cirazoline],antidepressant effect,[5],significant antidepressant effects in the forced swim test
same,home cage exploration / behavioral inhibition after handling and injection stress,[6],not effective in reducing behavioral inhibition
same,agonist efficacy,[7],partial agonists
same,anxiety measured by behavioral inhibition,[8],failed to affect anxiety
same,anxiety measured by behavioral inhibition,[9],failed to affect anxiety
Cc1cccc([C@H](C)c2cnc[nH]2)c1C [dexmedetomidine],affinity for respective receptor,[1],low nanomolar affinities
same,immobility versus vehicle,[2],equally effective
same,immobility versus vehicle,[2]; listed as DEX,significant dose-dependent decrease in immobility
same,distance swum versus vehicle,"[4]; 5th swim, acute ivt. 6FNE or DEX, DMI subacute i.p. 10 mg/kg",failed to have an overall significant effect
same,immobility versus vehicle,"[4]; 5th swim, acute ivt. 6FNE or DEX, DMI subacute i.p. 10 mg/kg, 10 mg/kg",only 6FNE was effective
same,immobility versus vehicle,"[4]; 5th swim, acute ivt. 6FNE or DEX, DMI subacute i.p. 10 mg/kg, listed as DEX, 10 mg/kg",failed to have an overall significant effect on immobility
same,immobility at single dose,[4]; DEX 0.04 nmoles ivt.,borderline significant reduction in immobility
"CC(C)(C)C(=O)Oc1cc(F)c(C(O)CN)cc1OC(=O)C(C)(C)C (stereo not drawn) [dp6FNE, Dipivalyl-6-fluoronorepinephrine]",time spent in the open arms,[10],increased time spent
same,passage of the blood brain barrier / uptake by the brain,[11],does pass the blood brain barrier
same,home cage exploration / behavioral inhibition after handling and injection stress,[6],same rescue of home cage exploration
same,antidepressant action in tail suspension test,"[2]; i.p. 1, 3 and 10 mg/kg, FIG. 5",significant antidepressant action
same,CMS reduction of sweetened milk intake,[12]; acute i.p. dp6FNE with prazosin 0.2 mg/kg,eliminates the CMS reduction of intake
same,hypophagia,[12]; acute i.p. dp6FNE,significant hypophagia
same,"signs of toxicity (reduced arousal, disheveled fur coat)","[13]; after repeated treatment, 0.5 mg/kg i.p. 11 daily treatments, no formal measures",no obvious signs of toxicity
same,sedation,"[13]; intracerebral 6FNE or peripheral dp6FNE, range of behavioral tests",Sedation has not been observed
same,motor activity (quadrants entered),[14],little or no effect on locomotor activity
same,relative time in the center of the field,[14],increased time in the center of the field
same,time spent in the lighted side,[15],increased time spent
same,onset of action compared with available antidepressants,[4]; acute i.p. administration,significantly faster onset of action
same,effect in repeated open-space swim test,"[4]; acute i.p., dp6FNE 1, 3, 10 mg/kg with prazosin 0.2 mg/kg, DMI 10 mg/kg, FIG. 5",significant antidepressant action
same,immobility versus vehicle,"[4]; dp6FNE 0.3 mg/kg with prazosin 0.2 mg/kg, animals not pretreated with either antagonist",significantly reduced immobility versus vehicle
same,distance swum versus vehicle,"[4]; dp6FNE 0.3 mg/kg with prazosin 0.2 mg/kg, animals not treated with either antagonist",significantly increased distances swum
same,speed or efficacy compared with partial α1-agonists,"[4]; i.p. 0, 1, 3, 10 mg/kg with phentolamine 1 mg/kg, 30 min before swim, Example 5, expected",more rapid or efficacious than the partial α1-agonists
COc1cc2nc(N3CCN(C(=O)c4ccco4)CC3)nc(N)c2cc1OC [prazosin],block of cortical α1-adrenoceptors by ex vivo binding,[16],30%
same,overall effect of antagonist pretreatment on distance swum,[4],significant overall decrease of distance swum
same,overall effect of antagonist pretreatment on immobility,[4],significant overall increase of immobility
same,effect of antagonist alone on TST or RFS measures,[4]; prazosin alone 0.2 mg/kg,did not affect these measures
COc1cc2nc(N3CCN(C(=O)C4CCCO4)CC3)nc(N)c2cc1OC (stereo not drawn) [terazosin],Cage midline crosses,[17]; [20],16.4 ± 1.5^c
same,Time immobile (min),[17]; [20],2.2 ± 0.5^c min
same,Gross movements,[17]; [20],123.5 ± 7.9^c
same,Cage midline crosses,[17]; [21],"9.2 ± 2.0^b,e"
same,Time immobile (min),[17]; [21],"7.2 ± 1.6^b,d min"
same,Gross movements,[17]; [21],"71.7 ± 11.7^a,d"
same,TI-,[17]; bilaterally injected animals,7.4 ± 1.4 min
same,percent decrease of GMs with respect to vehicle,[17]; bilaterally injected animals,54.6±9.1%
same,percent decrease of cage Xs with respect to vehicle,[17]; bilaterally injected animals,53.7±12.1%
same,percent depression of GMs compared to mean of the vehicle group,[17]; direct hits of LC,63.5±7.2%
same,increase of TI,[17]; [22],77 fold
same,reduction of GMs,[17]; [22],54%
same,reduction of cage Xs,[17]; [22],55%
same,percent depression of GMs compared to mean of the vehicle group,[17]; injection within 200μ of LC,54.0±7.5%
same,percent depression of GMs compared to mean of the vehicle group,[17]; injection within 500μ of LC,45.6±7.0%
same,TI-,[17]; unilaterally injected animals,6.1 ± 1.7 min
same,percent decrease of GMs with respect to vehicle,[17]; unilaterally injected animals,50.5±11.1%
same,percent decrease of cage Xs with respect to vehicle,[17]; unilaterally injected animals,52.1±16.5%
same,affinity for respective receptor,[18],low nanomolar affinities
same,effect of coinfused antagonist on anti-immobility effect of 6FNE,[2],significantly increased immobility when coinfused with 6FNE
same,effect of antagonist alone on immobility (antagonist+vehicle versus vehicle-only),[2],significantly increased immobility in the vehicle-treated animals
same,neural activity of the LC measured from c-Fos expression,[19],excitation of virtually every neuron of the nucleus
